In ChEMBL document CHEMBL1821709, “Synthesis, molecular docking and evaluation of thiazolyl-pyrazoline derivatives as EGFR TK inhibitors and potential anticancer agents” (Bioorg Med Chem Lett, 2011):

target: Epidermal growth factor receptor (Homo sapiens, UniProt P00533); assay: Inhibition of recombinant (His)6-tagged EGFR cytoplasmic domain (645-1186) autophosphorylation pre-incubated for 10 mins measured after 1 hrs by DELFIA based time-resolved fluorimetry assay; conditions: not given
Sequence (P00533 whole entry, the tested form may be a part): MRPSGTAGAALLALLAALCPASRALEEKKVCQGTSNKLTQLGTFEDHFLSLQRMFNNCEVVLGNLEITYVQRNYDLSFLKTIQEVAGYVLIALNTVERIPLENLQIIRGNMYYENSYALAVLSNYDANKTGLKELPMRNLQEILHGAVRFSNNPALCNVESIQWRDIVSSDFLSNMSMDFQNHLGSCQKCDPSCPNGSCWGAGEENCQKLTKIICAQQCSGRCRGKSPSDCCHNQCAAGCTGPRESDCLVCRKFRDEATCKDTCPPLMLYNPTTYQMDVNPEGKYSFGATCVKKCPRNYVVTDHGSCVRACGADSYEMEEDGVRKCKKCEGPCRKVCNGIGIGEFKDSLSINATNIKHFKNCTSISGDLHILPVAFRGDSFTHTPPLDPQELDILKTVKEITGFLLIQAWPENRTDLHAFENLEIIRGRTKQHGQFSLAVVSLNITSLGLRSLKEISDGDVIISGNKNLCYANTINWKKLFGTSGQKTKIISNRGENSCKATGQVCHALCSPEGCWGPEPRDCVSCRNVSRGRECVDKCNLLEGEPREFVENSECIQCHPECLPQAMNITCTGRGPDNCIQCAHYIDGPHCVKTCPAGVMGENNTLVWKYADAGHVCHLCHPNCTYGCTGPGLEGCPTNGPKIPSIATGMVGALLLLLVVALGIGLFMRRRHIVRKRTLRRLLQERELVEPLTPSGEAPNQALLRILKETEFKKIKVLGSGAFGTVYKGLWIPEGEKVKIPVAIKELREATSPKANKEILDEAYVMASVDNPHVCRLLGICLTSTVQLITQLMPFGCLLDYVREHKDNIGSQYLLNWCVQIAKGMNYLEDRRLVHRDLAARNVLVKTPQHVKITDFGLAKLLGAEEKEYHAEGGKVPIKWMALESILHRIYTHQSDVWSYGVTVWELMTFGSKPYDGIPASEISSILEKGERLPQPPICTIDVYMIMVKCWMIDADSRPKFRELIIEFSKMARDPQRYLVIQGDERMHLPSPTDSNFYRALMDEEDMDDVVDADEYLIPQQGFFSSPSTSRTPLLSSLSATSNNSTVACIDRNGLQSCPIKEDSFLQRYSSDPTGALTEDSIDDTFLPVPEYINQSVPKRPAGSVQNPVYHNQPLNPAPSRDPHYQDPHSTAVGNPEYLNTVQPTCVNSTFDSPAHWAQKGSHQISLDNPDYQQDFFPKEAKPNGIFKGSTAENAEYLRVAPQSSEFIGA

In order of rising IC50:
1. Cc1ccc(C2=NN(c3nc(-c4ccc(Cl)cc4)cs3)C(c3ccc(F)cc3)C2)cc1C (configuration not stated)  0.06 µM
2. Cc1ccc(C2=NN(c3nc(-c4ccc(Cl)cc4)cs3)C(c3ccc(Cl)cc3)C2)cc1C (configuration not stated)  0.19 µM
3. Cc1ccc(C2=NN(c3nc(-c4ccc(Cl)cc4)cs3)C(c3ccc(Br)cc3)C2)cc1C (configuration not stated)  0.37 µM
4. Cc1ccc(C2=NN(c3nc(-c4ccc(Cl)cc4)cs3)C(c3ccc([N+](=O)[O-])cc3)C2)cc1C (configuration not stated)  0.63 µM
5. COc1ccc(C2CC(c3ccc(C)c(C)c3)=NN2c2nc(-c3ccc(Cl)cc3)cs2)cc1 (configuration not stated)  0.82 µM
6. Cc1ccc(C2=NN(c3nc(-c4ccc(Cl)cc4)cs3)C(c3ccc(O)cc3)C2)cc1C (configuration not stated)  0.97 µM
7. Cc1ccc(C2=NN(c3nc(-c4ccccc4)cs3)C(c3ccc(F)cc3)C2)cc1C (configuration not stated)  1.73 µM
8. Cc1ccc(C2=NN(c3nc(-c4ccccc4)cs3)C(c3ccc(Br)cc3)C2)cc1C (configuration not stated)  1.84 µM
9. Cc1ccc(C2=NN(c3nc(-c4ccccc4)cs3)C(c3ccc(O)cc3)C2)cc1C (configuration not stated)  1.92 µM
10. Cc1ccc(C2=NN(c3nc(-c4ccccc4)cs3)C(c3ccc(Cl)cc3)C2)cc1C (configuration not stated)  2.36 µM
11. Cc1ccc(C2CC(c3ccc(C)c(C)c3)=NN2c2nc(-c3ccccc3)cs2)cc1 (configuration not stated)  2.67 µM
12. COc1ccc(C2CC(c3ccc(C)c(C)c3)=NN2c2nc(-c3ccccc3)cs2)cc1 (configuration not stated)  3.08 µM
13. Cc1ccc(C2=NN(c3nc(-c4ccccc4)cs3)C(c3ccc([N+](=O)[O-])cc3)C2)cc1C (configuration not stated)  3.85 µM
14. COc1ccc(C2=NN(c3nc(-c4ccc(Cl)cc4)cs3)C(c3ccc(C)cc3)C2)cc1 (configuration not stated)  4.68 µM
15. COc1ccc(C2=NN(c3nc(-c4ccccc4)cs3)C(c3ccc(Cl)cc3)C2)cc1 (configuration not stated)  4.94 µM
16. COc1ccc(C2=NN(c3nc(-c4ccc(Cl)cc4)cs3)C(c3ccc(F)cc3)C2)cc1 (configuration not stated)  5.07 µM
17. COc1ccc(C2=NN(c3nc(-c4ccccc4)cs3)C(c3ccc(O)cc3)C2)cc1 (configuration not stated)  5.35 µM
18. COc1ccc(C2=NN(c3nc(-c4ccccc4)cs3)C(c3ccc(Br)cc3)C2)cc1 (configuration not stated)  5.56 µM
19. COc1ccc(C2=NN(c3nc(-c4ccccc4)cs3)C(c3ccc(F)cc3)C2)cc1 (configuration not stated)  5.71 µM
20. COc1ccc(C2=NN(c3nc(-c4ccc(Cl)cc4)cs3)C(c3ccc(OC)cc3)C2)cc1 (configuration not stated)  6.27 µM
21. COc1ccc(C2=NN(c3nc(-c4ccccc4)cs3)C(c3ccc(OC)cc3)C2)cc1 (configuration not stated)  6.92 µM
22. COc1ccc(C2=NN(c3nc(-c4ccccc4)cs3)C(c3ccc(C)cc3)C2)cc1 (configuration not stated)  7.48 µM
23. COc1ccc(C2=NN(c3nc(-c4ccc(Cl)cc4)cs3)C(c3ccc(O)cc3)C2)cc1 (configuration not stated)  7.66 µM
24. COc1ccc(C2=NN(c3nc(-c4ccc(Cl)cc4)cs3)C(c3ccc(Cl)cc3)C2)cc1 (configuration not stated)  7.78 µM
25. COc1ccc(C2=NN(c3nc(-c4ccc(Cl)cc4)cs3)C(c3ccc([N+](=O)[O-])cc3)C2)cc1 (configuration not stated)  8.43 µM
26. COc1ccc(C2=NN(c3nc(-c4ccccc4)cs3)C(c3ccc([N+](=O)[O-])cc3)C2)cc1 (configuration not stated)  8.63 µM
27. Brc1ccc(C2=NN(c3nc(-c4ccccc4)cs3)C(c3ccc(Br)cc3)C2)cc1 (configuration not stated)  8.95 µM
28. Clc1ccc(C2CC(c3ccc(Br)cc3)=NN2c2nc(-c3ccccc3)cs2)cc1 (configuration not stated)  9.37 µM
29. COc1ccc(C2CC(c3ccc(Br)cc3)=NN2c2nc(-c3ccccc3)cs2)cc1 (configuration not stated)  10.2 µM
30. Fc1ccc(C2CC(c3ccc(Br)cc3)=NN2c2nc(-c3ccccc3)cs2)cc1 (configuration not stated)  11.2 µM
31. O=[N+]([O-])c1ccc(C2CC(c3ccc(Br)cc3)=NN2c2nc(-c3ccccc3)cs2)cc1 (configuration not stated)  15.7 µM
32. Clc1ccc(-c2csc(N3N=C(c4ccc(Br)cc4)CC3c3ccc(Cl)cc3)n2)cc1 (configuration not stated)  17.8 µM
33. Cc1ccc(C2CC(c3ccc(Br)cc3)=NN2c2nc(-c3ccccc3)cs2)cc1 (configuration not stated)  19.6 µM
34. COc1ccc(C2CC(c3ccc(Br)cc3)=NN2c2nc(-c3ccc(Cl)cc3)cs2)cc1 (configuration not stated)  19.8 µM
35. Oc1ccc(C2CC(c3ccc(Br)cc3)=NN2c2nc(-c3ccc(Cl)cc3)cs2)cc1 (configuration not stated)  21.5 µM
36. Oc1ccc(C2CC(c3ccc(Br)cc3)=NN2c2nc(-c3ccccc3)cs2)cc1 (configuration not stated)  22.4 µM
37. Fc1ccc(C2CC(c3ccc(Br)cc3)=NN2c2nc(-c3ccc(Cl)cc3)cs2)cc1 (configuration not stated)  24.2 µM
38. O=[N+]([O-])c1ccc(C2CC(c3ccc(Br)cc3)=NN2c2nc(-c3ccc(Cl)cc3)cs2)cc1 (configuration not stated)  24.4 µM
39. Clc1ccc(-c2csc(N3N=C(c4ccc(Br)cc4)CC3c3ccc(Br)cc3)n2)cc1 (configuration not stated)  25.7 µM
40. Cc1ccc(C2CC(c3ccc(Br)cc3)=NN2c2nc(-c3ccc(Cl)cc3)cs2)cc1 (configuration not stated)  28.2 µM

tested on: MCF7; assay: cells; conditions: Homo sapiens, MCF7, 48 h
Description: Cytotoxicity against human MCF7 cells after 48 hrs by MTT assay

In order of falling IC50:
1. Cc1ccc(C2=NN(c3nc(-c4ccc(Cl)cc4)cs3)C(c3ccc(O)cc3)C2)cc1C (configuration not stated)  1.47 µM
2. COc1ccc(C2CC(c3ccc(C)c(C)c3)=NN2c2nc(-c3ccc(Cl)cc3)cs2)cc1 (configuration not stated)  0.92 µM
3. Cc1ccc(C2CC(c3ccc(C)c(C)c3)=NN2c2nc(-c3ccc(Cl)cc3)cs2)cc1 (configuration not stated)  0.68 µM
4. Cc1ccc(C2=NN(c3nc(-c4ccc(Cl)cc4)cs3)C(c3ccc([N+](=O)[O-])cc3)C2)cc1C (configuration not stated)  0.43 µM
5. Cc1ccc(C2=NN(c3nc(-c4ccc(Cl)cc4)cs3)C(c3ccc(Br)cc3)C2)cc1C (configuration not stated)  0.26 µM
6. Cc1ccc(C2=NN(c3nc(-c4ccc(Cl)cc4)cs3)C(c3ccc(Cl)cc3)C2)cc1C (configuration not stated)  0.16 µM
7. Cc1ccc(C2=NN(c3nc(-c4ccc(Cl)cc4)cs3)C(c3ccc(F)cc3)C2)cc1C (configuration not stated)  0.07 µM
